Assay results reported in article PMC9005681, “Use of AD Informer Set compounds to explore validity of novel targets in Alzheimer's disease pathology” (Alzheimer's & Dementia : Translational Research & Clinical …, 2022).
Values joined by “and” are separate entries in the source; they are usually repeats but may differ in a detail not shown here. Identical values can stand only once.

Legend:
Assay in all cases: PDSP GPCR panel primary binding assays at 10 μM
[1] = biological target: T1, cloned human or rodent CNS receptors, channels, and transporters (PDSP panel) (Homo sapiens, UniProt P08912); settings: M5, primary assay
T1 construct: expressed in transfected cells
T1 sequence (P08912 1-532): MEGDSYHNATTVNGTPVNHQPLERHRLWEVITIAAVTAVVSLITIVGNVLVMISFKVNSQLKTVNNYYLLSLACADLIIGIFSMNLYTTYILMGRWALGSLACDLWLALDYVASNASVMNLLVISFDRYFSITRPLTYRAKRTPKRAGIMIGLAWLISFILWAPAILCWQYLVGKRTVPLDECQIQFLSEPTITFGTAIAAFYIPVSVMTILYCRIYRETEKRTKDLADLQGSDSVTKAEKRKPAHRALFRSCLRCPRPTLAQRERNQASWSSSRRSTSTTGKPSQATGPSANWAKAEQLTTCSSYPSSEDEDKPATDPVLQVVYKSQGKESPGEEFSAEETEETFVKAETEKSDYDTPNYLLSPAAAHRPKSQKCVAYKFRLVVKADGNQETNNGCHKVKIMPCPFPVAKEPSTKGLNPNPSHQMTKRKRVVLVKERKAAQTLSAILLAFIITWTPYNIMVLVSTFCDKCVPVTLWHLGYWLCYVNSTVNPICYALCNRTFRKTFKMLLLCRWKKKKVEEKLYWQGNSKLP
How it was run: (§1)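 Radioligand displacement at cloned human or rodent CNS targets: 46–47 primary binding assays run in quadruplicate at 10 μM. Targets where the compound displaced an average of >50% of radiolabeled standard ligand went to secondary binding in 11-point dose-response, in triplicate; none run for H3, PBR or GABAA.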

[2] = biological target: T2, cloned human or rodent CNS receptors, channels, and transporters (PDSP panel) (Homo sapiens, UniProt P14416); settings: D2, primary assay
T2 construct: expressed in transfected cells
How it was run: as §1

[3] = biological target: T3, cloned human or rodent CNS receptors, channels, and transporters (PDSP panel) (Homo sapiens, UniProt P20309); settings: M3, primary assay
T3 construct: expressed in transfected cells
How it was run: as §1

[4] = biological target: T4, cloned human or rodent CNS receptors, channels, and transporters (PDSP panel) (Homo sapiens, UniProt P28566); settings: 5-HT1E, primary assay
T4 construct: expressed in transfected cells
How it was run: as §1

[5] = biological target: T5, cloned human or rodent CNS receptors, channels, and transporters (PDSP panel) (Homo sapiens, UniProt P35367); settings: H1, primary assay
T5 construct: expressed in transfected cells
How it was run: as §1

[6] = biological target: T6, cloned human or rodent CNS receptors, channels, and transporters (PDSP panel) (Homo sapiens, UniProt P35372); settings: MOR, primary assay
T6 construct: expressed in transfected cells
How it was run: as §1

[7] = biological target: T7, cloned human or rodent CNS receptors, channels, and transporters (PDSP panel) (Homo sapiens, UniProt Q01959); settings: DAT, primary assay
T7 construct: expressed in transfected cells
How it was run: as §1

[8] = tested on: cloned human or rodent CNS receptors, channels, and transporters (PDSP panel); settings: primary assay; for Mean %: mean inhibition; for Inhibition 1: replicate 1; for Inhibition 2: replicate 2; for Inhibition 3: replicate 3; for Inhibition 4: replicate 4
How it was run: as §1

T3 sequence (P20309 whole entry): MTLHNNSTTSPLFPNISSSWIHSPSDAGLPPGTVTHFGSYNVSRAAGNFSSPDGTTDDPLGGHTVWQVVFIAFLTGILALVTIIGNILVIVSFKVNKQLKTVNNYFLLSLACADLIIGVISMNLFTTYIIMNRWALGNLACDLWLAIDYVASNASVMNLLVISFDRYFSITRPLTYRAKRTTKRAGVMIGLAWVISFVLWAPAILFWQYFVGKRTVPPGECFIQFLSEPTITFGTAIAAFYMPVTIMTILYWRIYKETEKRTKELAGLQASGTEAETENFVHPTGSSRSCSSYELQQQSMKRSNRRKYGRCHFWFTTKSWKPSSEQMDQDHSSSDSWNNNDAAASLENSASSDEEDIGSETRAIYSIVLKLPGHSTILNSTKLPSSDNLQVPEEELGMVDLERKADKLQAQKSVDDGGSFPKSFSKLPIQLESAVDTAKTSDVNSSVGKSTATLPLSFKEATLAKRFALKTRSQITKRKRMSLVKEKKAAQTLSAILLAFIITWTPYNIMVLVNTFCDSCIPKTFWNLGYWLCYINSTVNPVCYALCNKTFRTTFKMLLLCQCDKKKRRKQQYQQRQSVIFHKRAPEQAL
T7 sequence (Q01959 whole entry): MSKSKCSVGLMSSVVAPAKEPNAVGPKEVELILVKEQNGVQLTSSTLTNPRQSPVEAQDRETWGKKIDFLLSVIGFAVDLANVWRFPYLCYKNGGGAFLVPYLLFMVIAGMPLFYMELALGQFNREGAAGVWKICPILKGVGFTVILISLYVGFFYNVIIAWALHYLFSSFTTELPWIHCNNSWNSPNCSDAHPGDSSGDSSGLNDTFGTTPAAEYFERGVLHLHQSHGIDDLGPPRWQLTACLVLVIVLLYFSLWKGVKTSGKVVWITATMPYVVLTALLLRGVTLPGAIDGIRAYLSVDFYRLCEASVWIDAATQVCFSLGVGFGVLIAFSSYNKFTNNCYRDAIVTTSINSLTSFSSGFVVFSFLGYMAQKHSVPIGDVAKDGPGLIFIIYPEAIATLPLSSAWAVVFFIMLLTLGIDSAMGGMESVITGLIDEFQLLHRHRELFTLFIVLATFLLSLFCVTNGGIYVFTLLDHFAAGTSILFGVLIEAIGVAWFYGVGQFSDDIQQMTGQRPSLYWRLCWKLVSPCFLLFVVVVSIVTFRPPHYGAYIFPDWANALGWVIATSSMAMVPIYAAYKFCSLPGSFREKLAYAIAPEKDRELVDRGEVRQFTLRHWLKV
T5 sequence (P35367 whole entry): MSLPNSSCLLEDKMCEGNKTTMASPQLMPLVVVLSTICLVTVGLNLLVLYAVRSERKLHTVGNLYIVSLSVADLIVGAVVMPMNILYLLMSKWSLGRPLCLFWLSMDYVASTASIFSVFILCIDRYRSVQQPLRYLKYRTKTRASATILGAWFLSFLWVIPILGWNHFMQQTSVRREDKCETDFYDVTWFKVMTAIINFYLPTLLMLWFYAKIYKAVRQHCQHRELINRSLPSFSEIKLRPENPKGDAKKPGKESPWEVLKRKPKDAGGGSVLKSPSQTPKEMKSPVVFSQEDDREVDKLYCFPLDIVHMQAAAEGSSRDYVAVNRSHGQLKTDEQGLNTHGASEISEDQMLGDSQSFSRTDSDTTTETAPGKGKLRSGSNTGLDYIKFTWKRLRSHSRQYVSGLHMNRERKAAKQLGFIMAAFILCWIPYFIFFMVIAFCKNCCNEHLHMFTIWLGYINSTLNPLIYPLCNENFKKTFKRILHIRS
T6 sequence (P35372 whole entry): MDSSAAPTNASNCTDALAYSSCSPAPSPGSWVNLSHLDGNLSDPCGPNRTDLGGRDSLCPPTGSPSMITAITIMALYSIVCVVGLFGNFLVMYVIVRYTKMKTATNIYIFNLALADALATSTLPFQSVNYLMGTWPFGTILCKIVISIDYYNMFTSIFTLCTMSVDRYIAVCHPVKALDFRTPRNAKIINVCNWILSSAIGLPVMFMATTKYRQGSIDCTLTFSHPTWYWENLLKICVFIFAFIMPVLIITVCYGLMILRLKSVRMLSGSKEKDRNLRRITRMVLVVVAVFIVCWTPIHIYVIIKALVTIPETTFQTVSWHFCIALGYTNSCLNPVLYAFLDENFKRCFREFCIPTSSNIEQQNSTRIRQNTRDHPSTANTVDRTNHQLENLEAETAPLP
T2 sequence (P14416 whole entry): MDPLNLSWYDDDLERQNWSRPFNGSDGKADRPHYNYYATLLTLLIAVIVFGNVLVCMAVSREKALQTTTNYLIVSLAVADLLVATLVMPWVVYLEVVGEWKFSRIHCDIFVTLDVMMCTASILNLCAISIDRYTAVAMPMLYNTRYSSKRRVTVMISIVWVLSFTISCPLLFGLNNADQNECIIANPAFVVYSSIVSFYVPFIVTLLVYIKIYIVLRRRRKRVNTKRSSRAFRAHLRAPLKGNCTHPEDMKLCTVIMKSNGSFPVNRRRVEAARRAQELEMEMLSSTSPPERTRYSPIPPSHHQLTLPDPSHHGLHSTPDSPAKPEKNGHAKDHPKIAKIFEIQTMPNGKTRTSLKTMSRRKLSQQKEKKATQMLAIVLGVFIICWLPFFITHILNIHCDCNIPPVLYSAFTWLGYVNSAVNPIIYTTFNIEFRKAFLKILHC
T4 sequence (P28566 whole entry): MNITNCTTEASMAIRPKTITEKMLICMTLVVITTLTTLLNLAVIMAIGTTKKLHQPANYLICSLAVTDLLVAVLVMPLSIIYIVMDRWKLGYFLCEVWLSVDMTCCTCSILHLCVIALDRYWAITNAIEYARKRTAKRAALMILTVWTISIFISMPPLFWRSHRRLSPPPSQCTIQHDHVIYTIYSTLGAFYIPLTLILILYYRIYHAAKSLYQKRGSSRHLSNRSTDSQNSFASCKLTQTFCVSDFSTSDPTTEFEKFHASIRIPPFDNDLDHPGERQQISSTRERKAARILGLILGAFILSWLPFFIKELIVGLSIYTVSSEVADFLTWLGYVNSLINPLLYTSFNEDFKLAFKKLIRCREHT

MDL 28170 [UNC10302675A]
Mean % ([1]; mean inhibition): -3.08% | Inhibition 1 ([1]; replicate 1): 7.51% | Inhibition 2 ([1]; replicate 2): -10.6% | Inhibition 3 ([1]; replicate 3): 0.26% | Inhibition 4 ([1]; replicate 4): -9.5% | Mean % ([2]; mean inhibition): -18.47% | Inhibition 1 ([2]; replicate 1): -14.97% | Inhibition 2 ([2]; replicate 2): -19.19% | Inhibition 3 ([2]; replicate 3): -16% | Inhibition 4 ([2]; replicate 4): -23.71% | Mean % ([3]; mean inhibition): 3.62% | Inhibition 1 ([3]; replicate 1): 10.69% | Inhibition 2 ([3]; replicate 2): 6.89% | Inhibition 3 ([3]; replicate 3): 8.89% | Inhibition 4 ([3]; replicate 4): -11.99% | Mean % ([4]; mean inhibition): -6.22% | Inhibition 1 ([4]; replicate 1): -3.13% | Inhibition 2 ([4]; replicate 2): -5.37% | Inhibition 3 ([4]; replicate 3): -7.3% | Inhibition 4 ([4]; replicate 4): -9.09% | Mean % ([5]; mean inhibition): 62.36% | Inhibition 1 ([5]; replicate 1): 85.46% | Inhibition 2 ([5]; replicate 2): 73.14% | Inhibition 3 ([5]; replicate 3): 49.84% | Inhibition 4 ([5]; replicate 4): 41% | Mean % ([6]; mean inhibition): -2.22% | Inhibition 1 ([6]; replicate 1): 0.73% | Inhibition 2 ([6]; replicate 2): -3.1% | Inhibition 3 ([6]; replicate 3): -4.83% | Inhibition 4 ([6]; replicate 4): -1.67% | Mean % ([7]; mean inhibition): 35.54% | Inhibition 1 ([7]; replicate 1): 41.81% | Inhibition 2 ([7]; replicate 2): 27.44% | Inhibition 3 ([7]; replicate 3): 32.41% | Inhibition 4 ([7]; replicate 4): 40.51% | Mean % ([8]; Alpha1A): 5.14% | Inhibition 1 ([8]; Alpha1A): 14.68% | Inhibition 2 ([8]; Alpha1A): -1.03% | Inhibition 3 ([8]; Alpha1A): -8.14% | Inhibition 4 ([8]; Alpha1A): 15.06% | Mean % ([8]; Alpha2A): -0.83% | Inhibition 1 ([8]; Alpha2A): 3.33% | Inhibition 2 ([8]; Alpha2A): -2.81% | Inhibition 3 ([8]; Alpha2A): -6.74% | Inhibition 4 ([8]; Alpha2A): 2.9% | Mean % ([8]; Alpha2C): -3.61% | Inhibition 1 ([8]; Alpha2C): -3.7% | Inhibition 2 ([8]; Alpha2C): -0.8% | Inhibition 3 ([8]; Alpha2C): -1.62% | Inhibition 4 ([8]; Alpha2C): -8.31% | Mean % ([8]; BZP Rat Brain Site): 7.23% | Inhibition 1 ([8]; BZP Rat Brain Site): 18.74% | Inhibition 2 ([8]; BZP Rat Brain Site): 4.91% | Inhibition 3 ([8]; BZP Rat Brain Site): -1.16% | Inhibition 4 ([8]; BZP Rat Brain Site): 6.42% | Mean % ([8]; DOR): -10.37% | Inhibition 1 ([8]; DOR): -5.94% | Inhibition 2 ([8]; DOR): -12.45% | Inhibition 3 ([8]; DOR): -15.16% | Inhibition 4 ([8]; DOR): -7.93% | Inhibition 1 ([8]; GABAA): 16.54% and -28.18% | Inhibition 2 ([8]; GABAA): 2.5% and -11.42% | Inhibition 3 ([8]; GABAA): 1.02% and 0% | Inhibition 4 ([8]; GABAA): 29.11% and -5.47% | Mean % ([8]; H3): 9.84% | Inhibition 1 ([8]; H3): 9.54% | Inhibition 2 ([8]; H3): 0.8% | Inhibition 3 ([8]; H3): 7.8% | Inhibition 4 ([8]; H3): 21.2% | Mean % ([8]; H4): -7.26% | Inhibition 1 ([8]; H4): -26.58% | Inhibition 2 ([8]; H4): 0.78% | Inhibition 3 ([8]; H4): -5.94% | Inhibition 4 ([8]; H4): 2.7% | Mean % ([8]; Sigma 1): 5.78% | Mean % ([8]; Sigma 2): 26.55%
